The values that follow come from PubChem BioAssay AID1996.

Values after ≈ are worked out from the molar mass of the structure shown.

For this data set the following is noted: buffer; pH 7.4; 200.0 µM.
Turning to `Cn1c(=O)c2[nH]c(C3CCCC3)nc2n(C)c1=O`, the solubility (kinetic) was more than 37.2 µg/mL. Molecule `COc1cc(NC(=O)COC(=O)c2ccc([N+](=O)[O-])s2)cc(OC)c1OC` showed a kinetic solubility of 10.4 µg/mL (≈ 26.2 µM).

For the molecule `OCc1cc(-c2ccc(Cl)c(Cl)c2)on1`, the solubility (kinetic) is more than 36.6 µg/mL. Next, `NC(=O)c1ccc(Oc2ccc(Cl)cc2)c([N+](=O)[O-])c1`: 2 µg/mL (≈ 6.83 µM). With `Cc1cccc(NC(=O)c2cccnc2Oc2ccccc2)c1C(=O)O`, the solubility (kinetic) is more than 52.3 µg/mL. Next, `CC(C)OP(=O)(OC(C)C)C(C)NC(=O)Cc1ccccc1` (stereo not given): 44.4 µg/mL (≈ 136 µM); `Cc1nc2c(ccc3nc(NC(=O)C4CC4)sc32)s1`: 2.8 µg/mL (≈ 9.68 µM). Turning to `CCOc1cc(C2NC(=O)NC2=O)ccc1O` (stereo not given), the kinetic solubility was more than 35.4 µg/mL.

Consider `CC(=O)Nc1ccc(NC(=O)c2nccnc2C(=O)O)cn1`, for which the solubility (kinetic) was more than 45.2 µg/mL.

Molecule `CCC(=O)c1cn(CC(=O)Nc2ccccc2F)c2ccccc12` yielded a kinetic solubility of 3.2 µg/mL (≈ 9.87 µM).

Consider `Cc1ccc(OCC(=O)O/N=C(\N)c2cccc([N+](=O)[O-])c2)cc1C`, for which the solubility (kinetic) was 1.8 µg/mL (≈ 5.24 µM). In the case of `CCN(CC(=O)NCc1ccco1)S(=O)(=O)c1ccc(OC)cc1`, the kinetic solubility was more than 52.9 µg/mL.

The molecule `Cc1cc(C)c2c(NC(=O)CCl)nn(C)c2n1` gave a solubility (kinetic) of more than 37.9 µg/mL. For the molecule `CCOC(=O)C1CCCN(c2c(NCCC(C)C)c(=O)c2=O)C1` (stereo not given), the kinetic solubility worked out at 44.5 µg/mL (≈ 138 µM). For the molecule `O=C(Cc1ccc(-c2ccccc2)cc1)Nc1ccccc1`, the kinetic solubility was 1.7 µg/mL (≈ 5.92 µM). The molecule `CCS(=O)(=O)Nc1cccc(C(=O)O)c1` had a kinetic solubility of 30.5 µg/mL (≈ 133 µM).

Turning to `Cc1cc(=O)[nH]c(SCC(=O)N2CCCCC2)n1`, the kinetic solubility is more than 40.1 µg/mL. Next, `Cc1cccc(C)c1NC(=S)N1CCC(c2ccccc2)C1` (stereo not given): 34.1 µg/mL (≈ 110 µM); `COc1cc2c(cc1OC)C(COc1ccc(F)cc1)NCC2` (stereo not given): 43.8 µg/mL (≈ 138 µM); `O=C(Nc1ccon1)Nc1ccc(Cl)cc1Cl`: 1.6 µg/mL (≈ 5.88 µM).

On to `CC(=O)c1c(C)cc(C)c(CSc2ccccn2)c1C`, for which the kinetic solubility is 20.5 µg/mL (≈ 71.8 µM). In turn, `CC1(C)CC(=O)C=C(NCCc2ccccc2)C1` displayed a solubility (kinetic) of 35.1 µg/mL (≈ 144 µM).

`Cc1ccc(S(=O)(=O)NCCN2CCOCC2)c(C)c1.Cl` came in with a kinetic solubility of more than 50.2 µg/mL. In the case of `CN(c1ccccc1)S(=O)(=O)c1ccc2c(c1)oc(=O)n2C` it was 27.1 µg/mL (≈ 85.1 µM); in that of `O=C(CCc1nc2ccccc2s1)NC1CCOC1=O` (stereo not given), more than 43.6 µg/mL; in that of `CCCc1ccc(OCC(O)CN2CCCC2)cc1.Cl` (stereo not given), 37.2 µg/mL. Next, `Cc1cc(NC(=O)COc2cccc([N+](=O)[O-])c2)no1`: 2.9 µg/mL (≈ 10.5 µM); `Cc1ccc(NC(=O)COC(=O)C2(CC(=O)NC(C)(C)C)CCCC2)cc1C`: 2.5 µg/mL (≈ 6.43 µM); `COc1ccc2c(c1)CCc1c(C(=O)NCC(C)C)noc1-2`: 1.5 µg/mL (≈ 4.99 µM). In the case of `O=C(c1cccs1)N1CCN(c2ccc(Cl)cc2)CC1`, the kinetic solubility amounted to 39.2 µg/mL (≈ 128 µM). Next, `COC(=O)c1ccc(NC(=O)CCN2CCOCC2)cc1`: more than 43.9 µg/mL; `C=CCNC(=S)N(C1CCCCC1)C1CCCCC1`: 21 µg/mL (≈ 74.9 µM).

`COc1cc(OC)cc(C(=O)NCC(=O)OCC(=O)NCc2ccco2)c1`: the solubility (kinetic) was more than 56.5 µg/mL. `CC(C)C(=O)NC(=S)Nc1c(Cl)ccc2nsnc12` returned a solubility (kinetic) of 40.1 µg/mL (≈ 127 µM). Next, `O=C(COC(=O)c1cc(=O)[nH]c2ccccc12)c1ccccc1`: 8.8 µg/mL (≈ 28.6 µM). Next, `CCCN1CCC(NC(=O)Nc2cccc3ccccc23)CC1`: more than 46.7 µg/mL. Next, `CS(=O)(=O)Nc1ccc2c(c1)OCC(=O)N2Cc1ccccc1`: 42.4 µg/mL (≈ 128 µM); `CSCC(=O)N1CCCC(CO)(CCCc2ccccc2)C1` (stereo not given): more than 48.2 µg/mL. Regarding `O=C(NCc1ccccc1)c1ccccc1Br`, the solubility (kinetic) came to 36.4 µg/mL (≈ 125 µM).

Regarding `OC(COc1ccc2c(c1)OCO2)CN1CCCCC1` (stereo not given), the kinetic solubility was found to be 32.5 µg/mL (≈ 116 µM). Molecule `S=c1nc(-c2ccccc2)[nH]c2ccc(Br)cc12` came in with a kinetic solubility of less than 0.3 µg/mL. For the molecule `O=C(NNC(=S)Nc1ccc(F)c(Cl)c1)C1CC1`, the solubility (kinetic) is more than 43.2 µg/mL. As for `Cc1nc(-c2cccc(NC(=O)c3ccco3)c2)cs1`, the kinetic solubility is more than 42.6 µg/mL.

For `Nc1ccc(OCc2ccco2)cc1`, the solubility (kinetic) was found to be 19.5 µg/mL (≈ 103 µM). In the case of `CC1CC(=O)Nc2ccccc2N1C(=O)Nc1ccc(F)cc1` (stereo not given), the solubility (kinetic) is more than 47 µg/mL. `Cc1ccc(OC(C)C(=O)Nc2cc(C)on2)cc1` (stereo not given) registered a solubility (kinetic) of 36.2 µg/mL (≈ 139 µM). Next, `Cc1ccc2oc(Nc3nc(C)c(C)c(C)n3)nc2c1`: 2.4 µg/mL (≈ 8.94 µM); `Cc1cc(C)c(-c2nc3ccccc3s2)[nH]1`: 0.8 µg/mL (≈ 3.5 µM); `O=C(COC(=O)Cc1ccccc1F)NC(=O)NC1CCCC1`: 42.5 µg/mL (≈ 132 µM).

For `COc1ccc(Cl)cc1NC(=S)N1CCCCCC1`, the kinetic solubility was determined as 42.7 µg/mL (≈ 143 µM). In the case of `O=C(Nc1ccc(Br)cc1)c1ccccc1Br` it was 7.3 µg/mL (≈ 20.6 µM); in that of `Clc1ccc(-c2noc(CN3CCOCC3)n2)cc1`, more than 42 µg/mL. In the case of `O=[N+]([O-])c1ccc(CNc2cccc(F)c2)s1` it was 17.6 µg/mL (≈ 69.8 µM).

As to `O=C(O)C1CC=CCC1C(=O)NCc1ccc(Cl)c(Cl)c1` (stereo not given), the kinetic solubility was more than 49.2 µg/mL.

Regarding `CCOC(=O)/C(C#N)=C/C1=C(N2CCOCC2)C(C)(C)OCC1`, the solubility (kinetic) is more than 48.1 µg/mL. As to `Cn1cccc1C(=O)NCc1ccc(S(N)(=O)=O)cc1`, the solubility (kinetic) is more than 44 µg/mL. In the case of `COc1cc(OC)cc(C(=O)NCCNC(=O)c2ccccn2)c1` it was more than 49.4 µg/mL. In the case of `CCOC(=O)COc1cccc2c(=O)n(CC(N)=O)ccc12` it was 24.4 µg/mL (≈ 80.2 µM); in that of `C(=C\c1ccco1)/c1ccc2ccccc2n1`, 10.7 µg/mL (≈ 48.4 µM); in that of `CC1CCN(C(=O)COC(=O)c2nn(C)c(=O)c3ccccc23)CC1`, more than 51.5 µg/mL. As for `Cc1cc(C)n(CC(=O)Nc2ccc3c(c2)OCO3)c(=O)c1C#N`, the kinetic solubility was 8.4 µg/mL (≈ 25.8 µM). Next, `O=[N+]([O-])c1cccc(CSc2cccc[n+]2[O-])c1`: more than 39.3 µg/mL; `Cc1cc(NC(=O)CSCc2ccccc2C)no1`: 18.3 µg/mL (≈ 66.2 µM).

`Cc1ccccc1NC(=O)CSc1nnc(-c2ccccn2)o1` displayed a solubility (kinetic) of more than 49 µg/mL. The molecule `CC(=O)c1ccc(NC(=O)COC(=O)/C=C/c2cccs2)cc1` came in with a solubility (kinetic) of 7.3 µg/mL (≈ 22.2 µM). Next, `Cc1cccc(C(=O)NCC(=O)N2CCC2)c1`: more than 34.8 µg/mL; `CCOC(=O)/C(=C\c1ccc(OC)c(OC)c1)C(=O)c1cccnc1`: more than 51.2 µg/mL; `CC(C)c1ccc2oc(=O)cc(CN3CCOCC3)c2c1`: 41.9 µg/mL (≈ 146 µM). Turning to `Cc1ccc(S(=O)(=O)Nc2ccc(S(=O)(=O)Nc3nccs3)cc2)cc1C`, the solubility (kinetic) was more than 63.5 µg/mL. Turning to `Cc1cc(=O)n(C)c2ccc(S(=O)(=O)N3CCOCC3)cc12`, the kinetic solubility was 46.5 µg/mL (≈ 144 µM).

Consider `Cc1cc2ncc(-c3cccs3)nc2cc1C`, for which the kinetic solubility is less than 0.3 µg/mL.

In the case of `COc1cnc(NS(=O)(=O)c2ccc(N)cc2)nc1`, the solubility (kinetic) is more than 42 µg/mL.

Take `CN1CCN(CCNC(=O)Nc2ccccc2[N+](=O)[O-])CC1`: the kinetic solubility came out at 45.5 µg/mL (≈ 148 µM).

Consider `CCC(=O)c1cn(CC(=O)Nc2cc(C)ccc2C)c2ccccc12`, for which the solubility (kinetic) was less than 0.4 µg/mL. In the case of `CCc1cc(=O)[nH]c(SCC(=O)N2CCOCC2)n1` it was more than 42.5 µg/mL. The molecule `O=C(Nc1ccc(O)cc1)N1CCOCC1` had a kinetic solubility of more than 33.3 µg/mL.

`Cc1ccc(S(=O)(=O)NCC(=O)OCC(=O)N2CC(=O)Nc3ccccc32)cc1` yielded a kinetic solubility of more than 62.6 µg/mL. `CN1CCN(c2nc(NCc3ccco3)nc(N)c2[N+](=O)[O-])CC1` gave a solubility (kinetic) of more than 50 µg/mL.

The molecule `O=C(COC(=O)c1ccccc1Br)NCCC1=CCCCC1` returned a solubility (kinetic) of 22.5 µg/mL (≈ 61.4 µM). Regarding `COc1ccc(O)c(CN2CCN(CCc3ccccc3)C(CCO)C2)c1` (stereo not given), the kinetic solubility worked out at 54 µg/mL (≈ 146 µM). Turning to `Nc1c(Cl)ncnc1NCC(O)CO` (stereo not given), the solubility (kinetic) is more than 32.8 µg/mL. `Cn1c(C(=O)N2CCN(c3ccccc3)CC2)cc2cc(Cl)ccc21` yielded a kinetic solubility of 4.4 µg/mL (≈ 12.4 µM). On to `Cn1ncc(Br)c1NC(=O)c1ccco1`, for which the solubility (kinetic) was more than 40.5 µg/mL. `CCCc1cc(=O)[nH]c(SCC(=O)Nc2cc(C)on2)n1`: the solubility (kinetic) is more than 46.3 µg/mL. Next, `O=C(CSc1ccc(F)cc1)Nc1ccc2c(c1)C(=O)NC2=O`: 31.6 µg/mL (≈ 95.7 µM); `O=C(CSc1ncnc2scc(-c3ccccc3)c12)NC1CCS(=O)(=O)C1` (stereo not given): 58.6 µg/mL (≈ 140 µM); `CCS(=O)(=O)NCCc1csc(-c2ccc(OC)c(OC)c2)n1`: 53.2 µg/mL (≈ 149 µM). In the case of `O=C(Nc1ccc(Cl)cc1Cl)C1CCCO1` (stereo not given) it was more than 39 µg/mL; in that of `CCOc1cc(C(=O)NC(C)CCc2ccccc2)cc(OCC)c1OCC` (stereo not given), 0.8 µg/mL (≈ 2.08 µM); in that of `CCOc1ccccc1-c1noc(CCC(=O)NC2CCCCC2)n1`, 46.2 µg/mL (≈ 135 µM). In the case of `Cc1ccccc1C(=O)NCC(=O)Nc1ccccc1C(F)(F)F` it was more than 50.4 µg/mL; in that of `Cc1cnc(C(=O)Nc2ccc(N3CCCCC3)cc2)cn1`, 4.2 µg/mL (≈ 14.2 µM). Molecule `NS(=O)(=O)c1ccc(CNS(=O)(=O)c2cccc3nonc23)cc1` returned a kinetic solubility of 54.4 µg/mL (≈ 148 µM). For the molecule `O=C(CSc1ccccc1F)NC(=O)c1ccccc1Br`, the kinetic solubility is more than 55.2 µg/mL.

`Cc1onc(-c2ccccc2)c1C(=O)NCC(=O)Nc1cc(Cl)ccc1Cl` returned a solubility (kinetic) of 9.4 µg/mL (≈ 23.3 µM). In the case of `CCOC(=O)N1CCN(Cc2nc3cc([N+](=O)[O-])ccc3n2C)CC1`, the solubility (kinetic) was determined as 50.7 µg/mL (≈ 146 µM).

With `Cc1c(F)cccc1NC(=O)CCCCCC1NC(=O)NC1C` (stereo not given), the solubility (kinetic) was 46.7 µg/mL (≈ 145 µM). In the case of `CC(=O)N1c2ccccc2C(CBr)=CC1(C)C` it was 31.8 µg/mL (≈ 108 µM); in that of `COc1ccc(-c2ccc(C(=O)O)o2)c([N+](=O)[O-])c1`, more than 39.5 µg/mL. Next, `CC(=O)N/C(=N\c1nc(C)cc(C)n1)Nc1ccc2ccccc2c1`: 0.5 µg/mL (≈ 1.5 µM). As to `O=C(NCc1ccncc1)Nc1cccc([N+](=O)[O-])c1`, the solubility (kinetic) was more than 40.8 µg/mL. In turn, `O=C(N/C(=C\c1ccc(Cl)cc1)C(=O)N1CCCCC1)c1ccco1` returned a kinetic solubility of more than 53.8 µg/mL. Next, `O=C(NCC1COc2ccccc2O1)C1CCN(S(=O)(=O)c2ccccc2)CC1` (stereo not given): 40.8 µg/mL (≈ 98 µM); `NC(=S)Nc1ccc(F)c(F)c1F`: more than 30.9 µg/mL. Molecule `CC(=O)Nc1nc(CC(C)C)cc(-c2ccccc2)c1C#N` returned a kinetic solubility of more than 44 µg/mL.
